Results from PMC7619385 (ACS infectious diseases, 2025).
Like-named read-outs stand apart in the source and are kept apart here.

Biological target: T1, LmxCLK1 (Leishmania mexicana, UniProt E9AMP2)
T1 sequence (E9AMP2 1-422): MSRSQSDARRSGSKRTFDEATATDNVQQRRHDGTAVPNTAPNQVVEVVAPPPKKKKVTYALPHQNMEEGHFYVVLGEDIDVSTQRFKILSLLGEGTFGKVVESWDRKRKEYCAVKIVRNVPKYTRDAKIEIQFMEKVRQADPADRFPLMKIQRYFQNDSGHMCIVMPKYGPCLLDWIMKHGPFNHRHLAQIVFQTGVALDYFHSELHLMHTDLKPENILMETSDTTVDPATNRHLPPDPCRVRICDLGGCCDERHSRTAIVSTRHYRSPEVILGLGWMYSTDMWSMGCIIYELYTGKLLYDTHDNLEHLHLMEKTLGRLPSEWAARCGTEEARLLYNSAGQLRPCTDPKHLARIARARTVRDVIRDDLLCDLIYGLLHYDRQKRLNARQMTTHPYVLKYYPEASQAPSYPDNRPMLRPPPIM
Test: biochemical
Assay type: binding

[1] = DSF, 10 µM compound, 2 µM LmxCLK1, Run 1
[2] = DSF, 10 µM compound, 2 µM LmxCLK1, Run 2
[3] = DSF, 10 µM compound, 2 µM LmxCLK1, mean of two runs
[4] = DSF, 10 µM compound, 2 µM LmxCLK1, Run 1, read-out: ΔTm Run 1
[5] = DSF, 10 µM compound, 2 µM LmxCLK1, Run 2, read-out: ΔTm Run 2
[6] = DSF, 10 µM compound, 2 µM LmxCLK1, mean of two runs, read-out: ΔTm Average

Row | Compound | ΔTm Run 1 [1] | ΔTm Run 2 [2] | ΔTm Average [3] | ΔTm at 10 µM [4] | ΔTm at 10 µM [5] | ΔTm at 10 µM [6] | further results
1 | Cc1c(F)cc(C(=O)NC2CC2)cc1-c1ccc(C(=O)NCC(C)(C)C)cn1 [Losmapimod (GW856553X)] | 0.4 °C | 0.1 °C | 0.2 °C |  |  |  | 
2 | Cc1ccc(C(=O)Nc2cccc(C(F)(F)F)c2)cc1Nc1nc(-c2cccnc2)nc2c1cnn2C [NVP-BHG712] | 0.1 °C | -0.3 °C | -0.1 °C |  |  |  | 
3 | Cc1cc(Nc2cc(N3CCN(C)CC3)nc(/C=C/c3ccccc3)n2)n[nH]1 [ENMD-2076] |  |  |  | 0.3 °C | 0.1 °C | 0.2 °C | 
4 | Cc1ccc([N+](=O)[O-])cc1S(=O)(=O)N(C)/N=C/c1cnc2ccc(Br)cn12 [PIK-75] |  |  |  |  |  |  | ΔTm Average: 0.3 °C; ΔTm Run 1: 0.5 °C; ΔTm Run 2: 0.1 °C
5 | CCN1CCN(Cc2ccc(-c3cc4c(N[C@H](C)c5ccccc5)ncnc4[nH]3)cc2)CC1 [AEE788 (NVP-AEE788)] | 0.2 °C | 0.3 °C | 0.3 °C |  |  |  | 
6 | COc1cc2nccc(Oc3ccc(NC(=O)Nc4ccc(F)cc4F)c(F)c3)c2cc1OC [Ki8751] | 0.0 °C | -0.2 °C | -0.1 °C |  |  |  | 
7 | CO[C@@H](C(=O)N1Cc2n[nH]c(NC(=O)c3ccc(N4CCN(C)CC4)cc3)c2C1)c1ccccc1 [Danusertib (PHA-739358)] |  |  |  | 0.3 °C | 0.1 °C | 0.2 °C | 
8 | CCCS(=O)(=O)Nc1ccc(F)c(C(=O)c2c[nH]c3ncc(Cl)cc23)c1F [PLX-4720] |  |  |  | -0.3 °C | -0.1 °C | -0.2 °C | 
9 | Cc1[nH]c(/C=C2\C(=O)Nc3ccccc32)c(C)c1CCC(=O)O [TSU-68 (SU6668)] | 0.1 °C | -0.1 °C | 0.0 °C |  |  |  | 
10 | COc1ccc2c(Oc3ccc(NC(=O)c4c(C)n(CC(C)(C)O)n(-c5ccccc5)c4=O)nc3)ccnc2c1 [AMG-458] | 0.9 °C | 1.0 °C | 1.0 °C |  |  |  | 
11 | Cc1ccc(F)c(NC(=O)Nc2ccc(-c3cccc4[nH]nc(N)c34)cc2)c1 [Linifanib (ABT-869)] | 0.3 °C | 0.6 °C | 0.4 °C |  |  |  | 
12 | CCc1cccc(CC)c1NC(=O)N1Cc2n[nH]c(NC(=O)c3ccc(N4CCN(C)CC4)cc3)c2C1 [PHA-680632] |  |  |  | 0.7 °C | 0.6 °C | 0.6 °C | 
13 | Nc1ccc(C(=O)Nc2cccc(-c3nc(N4CCOCC4)c4oc5ncccc5c4n3)c2)cn1 [YM201636] |  |  |  |  |  |  | ΔTm Run 1: 0.4 °C; ΔTm Run 2: 0 °C
14 | CO[C@H]1C[C@@H]2CC[C@@H](C)[C@@](O)(O2)C(=O)C(=O)N2CCCC[C@H]2C(=O)O[C@H]([C@H](C)C[C@@H]2CC[C@@H](OC(=O)C(C)(CO)CO)[C@H](OC)C2)CC(=O)[C@H](C)/C=C(\C)[C@@H](O)[C@@H](OC)C(=O)[C@H](C)C[C@H](C)/C=C/C=C/C=C/1C [Temsirolimus (CCI-779)] | -0.1 °C | -0.3 °C | -0.2 °C |  |  |  | 
15 | C[C@@H]1CN(CC(=O)Nc2ccc3c(c2)Cc2cccc(-c4cc(=O)cc(N5CCOCC5)o4)c2S3)C[C@H](C)O1 [KU-60019] |  |  |  | -0.1 °C | -0.2 °C | -0.1 °C | 
16 | Cc1ccc(C(=O)Nc2ccc(CN3CCN(C)CC3)c(C(F)(F)F)c2)cc1C#Cc1cnc2cccnn12 [Ponatinib (AP24534)] | 0.0 °C | -0.1 °C | -0.1 °C |  |  |  | 
17 | COc1ncccc1-c1cnn2ccc(N3CCN(C(=O)OC(C)C)CC3)nc12 [LP-935509 (AAK1)] | -0.2 °C | -0.4 °C | -0.3 °C |  |  |  | 
18 | O=c1[nH]c2ccc(Cl)cc2c(N[C@@H]2CN3CCC2CC3)c1-c1nc2ccccc2[nH]1 [CHIR-124] | 0.3 °C | 0.0 °C | 0.2 °C |  |  |  | 
19 | Oc1cc(O)cc(/C=C/c2ccc(O)c(O)c2)c1 [Piceatannol] |  |  |  | 0 °C | 0.1 °C | 0.1 °C | 
20 | CCC(=O)Nc1cccc(Oc2nc(Nc3ccc(N4CCN(C)CC4)cc3OC)ncc2Cl)c1 [WZ4003] |  |  |  | 0.1 °C | -0.1 °C | 0 °C | 
21 | O=c1c(-c2ccc(O)cc2)coc2cc(O)cc(O)c12 [Genistein] |  |  |  | 0.2 °C | 0.3 °C | 0.2 °C | 
22 | COc1ccc(-c2ccc3c(N4CCOC[C@@H]4C)nc(N4CCOC[C@@H]4C)nc3n2)cc1CO [AZD8055] |  |  |  | 0.4 °C | 0.3 °C | 0.3 °C | 
23 | COc1cc2c(Oc3ccc(NC(=O)C4(C(=O)Nc5ccc(F)cc5)CC4)cc3F)ccnc2cc1OCCCN1CCOCC1 [Foretinib (GSK1363089)] | 0.4 °C | -0.4 °C | 0.0 °C |  |  |  | 

Row | Compound | ΔTm Run 1 [1] | ΔTm Run 2 [2] | ΔTm Average [3] | ΔTm at 10 µM [4] | ΔTm at 10 µM [5] | ΔTm at 10 µM [6] | further results
24 | CN1CCC(c2c(O)cc(O)c3c(=O)cc(-c4ccccc4Cl)oc23)C1CO (centres unmarked) [P276-00] |  |  |  |  |  |  | ΔTm Average: 0.3 °C; ΔTm Run 1: 0.4 °C; ΔTm Run 2: 0.3 °C
25 | CCN1CCN(Cc2ccc(Nc3ncc(F)c(-c4cc(F)c5nc(C)n(C(C)C)c5c4)n3)nc2)CC1 [LY2835219] |  |  |  | 2.2 °C | 2.1 °C | 2.2 °C | 
26 | Nc1cccc(-c2cc3c(Oc4cccc(O)c4)ncnc3[nH]2)c1 [TWS119] | 0.1 °C | 0.2 °C | 0.1 °C |  |  |  | 
27 | COc1cc2nccc(Oc3ccc(NC(=O)C4(C(=O)Nc5ccc(F)cc5)CC4)cc3)c2cc1OC [Cabozantinib (XL184)] | 0.3 °C | -0.2 °C | 0.0 °C |  |  |  | 
28 | COc1cc(Nc2ncc3c(n2)-c2ccc(Cl)cc2C(c2c(F)cccc2OC)=NC3)ccc1C(=O)O [Alisertib (MLN8237)] |  |  |  | 0.1 °C | -0.3 °C | -0.1 °C | 
29 | O=C(NCc1cccc(O)c1)Nc1nc(-c2ccncc2)cs1 [RKI-1447] | -0.1 °C | -0.1 °C | -0.1 °C |  |  |  | 
30 | Cn1cc(-c2ccc3nnc(C(F)(F)c4ccc5ncccc5c4)n3n2)cn1 [JNJ-38877605] |  |  |  |  |  |  | ΔTm Average: -0.3; ΔTm Run 1: -0.1; ΔTm Run 2: -0.4
31 | Cc1cc(Nc2cc(CN3CCOCC3)c3nc(C)c(Cc4ccc(Cl)cc4F)n3n2)n[nH]1 [LY2784544] |  |  |  | -0.3 °C | -0.4 °C | -0.4 °C | 
32 | COc1ccc(N(C(=O)Oc2c(C)cccc2C)c2ccnc(Nc3ccc(N4CCN(C)CC4)cc3)n2)c(OC)c1 [WH-4-023] |  |  |  |  |  |  | ΔTm Average: -0.3; ΔTm Run 1: -0.4; ΔTm Run 2: -0.2
33 | Cc1ncc(-c2ccnc(Nc3ccc(S(C)(=O)=O)cc3)n2)n1C(C)C [AZD5438] |  |  |  | 1.2 °C | 0.8 °C | 1 °C | 
34 | NC1(Cc2ccc(Cl)cc2)CCN(c2ncnc3[nH]ccc23)CC1 [CCT128930] | 0.8 °C | 0.6 °C | 0.7 °C |  |  |  | 
35 | CC(C)(C#N)c1ccc(N2C(=O)OCc3cnc4ccc(-c5cnc6ccccc6c5)cc4c32)cc1 [ETP-46464] | 0.3 °C | -0.4 °C | -0.1 °C |  |  |  | 
36 | NC(=O)c1cnc(N[C@@H]2CCCC[C@@H]2N)nc1Nc1cccc(-n2nccn2)c1 [PRT062607 (P505-15)] |  |  |  |  |  |  | ΔTm Average: 1.3 °C; ΔTm Run 1: 1.3 °C; ΔTm Run 2: 1.3 °C
37 | O=C1NC(=O)/C(=C/c2cccc(C(F)(F)F)c2)S1 [SMI-4a] |  |  |  |  |  |  | ΔTm Average: -0.2; ΔTm Run 1: -0.3; ΔTm Run 2: -0.1
38 | CC[C@@H]1C(=O)N(C)c2cnc(Nc3ccc(C(=O)N[C@H]4CC[C@H](N5CCN(CC6CC6)CC5)CC4)cc3OC)nc2N1C(C)C [Volasertib (BI 6727)] | 0.3 °C | 0.0 °C | 0.2 °C |  |  |  | 
39 | Nc1nc(N)c2nc(-c3cccc(O)c3)c(-c3cccc(O)c3)nc2n1 [TG100-115] |  |  |  |  |  |  | ΔTm Average: 1.5 °C; ΔTm Run 1: 1.7 °C; ΔTm Run 2: 1.3 °C
40 | CNC(=O)Nc1ccc(-c2nc(N3CC4CCC(C3)O4)c3cnn(C4CCC5(CC4)OCCO5)c3n2)cc1 [WYE-125132 (WYE-132)] | 0.2 °C | -0.1 °C | 0.0 °C |  |  |  | 
41 | COc1ccc(-c2nc(N3CCOCC3)c3sc(CN(C)c4ncc(C(=O)NO)cn4)cc3n2)cn1 [CUDC-907] |  |  |  | 0.3 °C | -0.2 °C | 0 °C | 
42 | CC(C)(C)c1cc(NC(=O)Nc2ccc(-c3cn4c(n3)sc3cc(OCCN5CCOCC5)ccc34)cc2)no1 [Quizartinib (AC220)] |  |  |  | 0.3 °C | 0.2 °C | 0.3 °C | 
43 | O=c1c(O)c(-c2ccc(O)c(O)c2)oc2cc(O)cc(O)c12 [Quercetin] |  |  |  | 0.5 °C | 0.6 °C | 0.5 °C | 
44 | CA75 (GAK) |  |  |  |  |  |  | ΔTm Average: -0.1; ΔTm Run 1: -0.2; ΔTm Run 2: 0 °C
45 | COc1cc2/c(=N/c3ccc(Br)cc3F)nc[nH]c2cc1OCC1CCN(C)CC1 [Vandetanib (ZD6474)] | 0.0 °C | -0.1 °C | -0.1 °C |  |  |  | 
46 | COc1ccc(COc2cc3oc(=O)c4cc(C(C)O)ccc4c3cc2OC)cc1 (centres unmarked) [Palomid 529 (P529)] | 0.3 °C | -0.1 °C | 0.1 °C |  |  |  | 
